Measured values from the NIST ThermoML archive (doi:10.1021/acs.jced.6b00210).
± gives the expanded uncertainty stated by the source.

Assay: xn = mol fraction of the nth substance listed
Conditions: 100 kPa, Liquid; for viscosity: Concentric cylinders viscometry; for mass density: Vibrating tube method

Nc1ccccc1 [aniline] + CCCC(C)O
Conditions	mass density [kg/m3]	viscosity [mPa·s]
293.15 K, x1 = 0.0811	824.5 ± 0.2	3.55 ± 0.43
293.15 K, x1 = 0.1599	839.5 ± 0.2	3.23 ± 0.39
293.15 K, x1 = 0.2399	855 ± 0.2	3 ± 0.36
293.15 K, x1 = 0.35	877 ± 0.3	2.8 ± 0.3
293.15 K, x1 = 0.44	895.5 ± 0.3	2.71 ± 0.33
293.15 K, x1 = 0.56	920.8 ± 0.3	2.67 ± 0.32
293.15 K, x1 = 0.65	940.4 ± 0.3	2.72 ± 0.33
293.15 K, x1 = 0.74	960.5 ± 0.3	2.86 ± 0.34
293.15 K, x1 = 0.8499	985.8 ± 0.3	3.26 ± 0.39
293.15 K, x1 = 0.9363	1006.3 ± 0.3	3.79 ± 0.46
293.15 K, x1 = 1	1021.7 ± 0.3	4.37 ± 0.53
298.15 K, x1 = 0.0811	820.3 ± 0.2	3.03 ± 0.36
298.15 K, x1 = 0.1599	835.3 ± 0.2	2.74 ± 0.33
298.15 K, x1 = 0.2399	850.8 ± 0.2	2.53 ± 0.3
298.15 K, x1 = 0.35	872.7 ± 0.3	2.35 ± 0.28
298.15 K, x1 = 0.44	891.1 ± 0.3	2.28 ± 0.27
298.15 K, x1 = 0.56	916.4 ± 0.3	2.28 ± 0.27
298.15 K, x1 = 0.65	935.9 ± 0.3	2.34 ± 0.28
298.15 K, x1 = 0.74	956 ± 1	2.49 ± 0.3
298.15 K, x1 = 0.8499	981.4 ± 0.3	2.87 ± 0.35
298.15 K, x1 = 0.9363	1001.9 ± 0.3	3.31 ± 0.4
298.15 K, x1 = 1	1017.4 ± 0.3	3.8 ± 0.46
303.15 K, x1 = 0.0811	816.1 ± 0.2	2.61 ± 0.31
303.15 K, x1 = 0.1599	831 ± 0.2	2.34 ± 0.28
303.15 K, x1 = 0.2399	846.5 ± 0.2	2.12 ± 0.26
303.15 K, x1 = 0.35	868.3 ± 0.3	1.93 ± 0.23
303.15 K, x1 = 0.44	886.7 ± 0.3	1.86 ± 0.22
303.15 K, x1 = 0.56	912 ± 1	1.83 ± 0.22
303.15 K, x1 = 0.65	931.6 ± 0.3	1.87 ± 0.23
303.15 K, x1 = 0.74	951.7 ± 0.3	2.01 ± 0.24
303.15 K, x1 = 0.8499	977 ± 0.3	2.36 ± 0.28
303.15 K, x1 = 0.9363	997.6 ± 0.3	2.74 ± 0.33
303.15 K, x1 = 1	1013.2 ± 0.3	3.13 ± 0.38
308.15 K, x1 = 0.0811	811.8 ± 0.2	2.22 ± 0.27
308.15 K, x1 = 0.1599	826.7 ± 0.2	1.98 ± 0.24
308.15 K, x1 = 0.2399	842.1 ± 0.3	1.8 ± 0.22
308.15 K, x1 = 0.35	863.9 ± 0.3	1.65 ± 0.2
308.15 K, x1 = 0.44	882.3 ± 0.3	1.58 ± 0.19
308.15 K, x1 = 0.56	907.6 ± 0.3	1.562 ± 0.19
308.15 K, x1 = 0.65	927.1 ± 0.3	1.64 ± 0.2
308.15 K, x1 = 0.74	947.2 ± 0.3	1.78 ± 0.21
308.15 K, x1 = 0.8499	972.7 ± 0.3	2.09 ± 0.25
308.15 K, x1 = 0.9363	993.3 ± 0.3	2.44 ± 0.29
308.15 K, x1 = 1	1009 ± 0.3	2.75 ± 0.33
313.15 K, x1 = 0.0811	807.5 ± 0.2	1.84 ± 0.22
313.15 K, x1 = 0.1599	822.3 ± 0.2	1.64 ± 0.2
313.15 K, x1 = 0.2399	837.6 ± 0.3	1.5 ± 0.18
313.15 K, x1 = 0.35	859.4 ± 0.3	1.39 ± 0.17
313.15 K, x1 = 0.44	877.8 ± 0.3	1.359 ± 0.16
313.15 K, x1 = 0.56	903 ± 0.3	1.38 ± 0.17
313.15 K, x1 = 0.65	922.6 ± 0.3	1.46 ± 0.18
313.15 K, x1 = 0.74	942.8 ± 0.3	1.61 ± 0.19
313.15 K, x1 = 0.8499	968.2 ± 0.3	1.89 ± 0.23
313.15 K, x1 = 0.9363	989 ± 0.3	2.18 ± 0.26
313.15 K, x1 = 1	1004.7 ± 0.3	2.43 ± 0.29
318.15 K, x1 = 0.0811	803.1 ± 0.2	1.48 ± 0.18
318.15 K, x1 = 0.1599	817.9 ± 0.3	1.34 ± 0.16
318.15 K, x1 = 0.2399	833.2 ± 0.3	1.257 ± 0.15
318.15 K, x1 = 0.35	854.9 ± 0.3	1.18 ± 0.14
318.15 K, x1 = 0.44	873.3 ± 0.3	1.16 ± 0.14
318.15 K, x1 = 0.56	898.6 ± 0.3	1.21 ± 0.15
318.15 K, x1 = 0.65	918.1 ± 0.3	1.29 ± 0.16
318.15 K, x1 = 0.74	938.3 ± 0.3	1.44 ± 0.17
318.15 K, x1 = 0.8499	963.8 ± 0.3	1.7 ± 0.2
318.15 K, x1 = 0.9363	984.6 ± 0.3	1.93 ± 0.23
318.15 K, x1 = 1	1000.4 ± 0.3	2.14 ± 0.26
323.15 K, x1 = 0.0811	798.7 ± 0.2	1.19 ± 0.14
323.15 K, x1 = 0.1599	813.3 ± 0.3	1.11 ± 0.13
323.15 K, x1 = 0.2399	828.6 ± 0.3	1.06 ± 0.13
323.15 K, x1 = 0.35	850.2 ± 0.3	1.03 ± 0.12
323.15 K, x1 = 0.44	868.5 ± 0.3	1.03 ± 0.12
323.15 K, x1 = 0.56	893.7 ± 0.3	1.08 ± 0.13
323.15 K, x1 = 0.65	913.3 ± 0.3	1.17 ± 0.14
323.15 K, x1 = 0.74	933.4 ± 0.3	1.31 ± 0.16
323.15 K, x1 = 0.8499	958.9 ± 0.3	1.54 ± 0.19
323.15 K, x1 = 0.9363	979.7 ± 0.3	1.77 ± 0.21
323.15 K, x1 = 1	995.5 ± 0.3	1.96 ± 0.24

Nc1ccccc1 [aniline] + CCC(C)O
Conditions	mass density [kg/m3]	viscosity [mPa·s]
293.15 K, x1 = 0.0813	825 ± 0.2	3.32 ± 0.4
293.15 K, x1 = 0.16	842.5 ± 0.2	3.07 ± 0.37
293.15 K, x1 = 0.24	860.1 ± 0.2	2.88 ± 0.35
293.15 K, x1 = 0.3502	884.2 ± 0.3	2.71 ± 0.33
293.15 K, x1 = 0.44	903.7 ± 0.3	2.66 ± 0.32
293.15 K, x1 = 0.5601	929.6 ± 0.3	2.72 ± 0.33
293.15 K, x1 = 0.65	948.8 ± 0.3	2.81 ± 0.34
293.15 K, x1 = 0.74	967.8 ± 0.3	3 ± 0.36
293.15 K, x1 = 0.8499	990.8 ± 0.3	3.4 ± 0.41
293.15 K, x1 = 0.94	1009.4 ± 0.3	3.89 ± 0.47
293.15 K, x1 = 1	1021.7 ± 0.3	4.37 ± 0.53
298.15 K, x1 = 0.0813	820.7 ± 0.2	2.77 ± 0.33
298.15 K, x1 = 0.16	838.1 ± 0.2	2.55 ± 0.31
298.15 K, x1 = 0.24	855.7 ± 0.2	2.39 ± 0.29
298.15 K, x1 = 0.3502	879.7 ± 0.3	2.25 ± 0.27
298.15 K, x1 = 0.44	899.2 ± 0.3	2.21 ± 0.27
298.15 K, x1 = 0.5601	924.9 ± 0.3	2.24 ± 0.27
298.15 K, x1 = 0.65	944.1 ± 0.3	2.33 ± 0.28
298.15 K, x1 = 0.74	963.1 ± 0.3	2.52 ± 0.3
298.15 K, x1 = 0.8499	986.2 ± 0.3	2.92 ± 0.35
298.15 K, x1 = 0.94	1004.9 ± 0.3	3.38 ± 0.41
298.15 K, x1 = 1	1017.4 ± 0.3	3.8 ± 0.46
303.15 K, x1 = 0.0813	816.3 ± 0.2	2.3 ± 0.28
303.15 K, x1 = 0.16	833.6 ± 0.2	2.12 ± 0.26
303.15 K, x1 = 0.24	851.1 ± 0.2	1.97 ± 0.24
303.15 K, x1 = 0.3502	875.1 ± 0.3	1.83 ± 0.22
303.15 K, x1 = 0.44	894.5 ± 0.3	1.78 ± 0.21
303.15 K, x1 = 0.5601	920.4 ± 0.3	1.77 ± 0.21
303.15 K, x1 = 0.65	939.6 ± 0.3	1.83 ± 0.22
303.15 K, x1 = 0.74	958.6 ± 0.3	1.97 ± 0.24
303.15 K, x1 = 0.8499	981.8 ± 0.3	2.32 ± 0.28
303.15 K, x1 = 0.94	1000.6 ± 0.3	2.77 ± 0.33
303.15 K, x1 = 1	1013.2 ± 0.3	3.13 ± 0.38
308.15 K, x1 = 0.0813	811.9 ± 0.2	1.94 ± 0.23
308.15 K, x1 = 0.16	829.1 ± 0.2	1.81 ± 0.22
308.15 K, x1 = 0.24	846.6 ± 0.3	1.69 ± 0.2
308.15 K, x1 = 0.3502	870.5 ± 0.3	1.56 ± 0.19
308.15 K, x1 = 0.44	890 ± 0.3	1.51 ± 0.18
308.15 K, x1 = 0.5601	915.8 ± 0.3	1.5 ± 0.18
308.15 K, x1 = 0.65	935 ± 1	1.55 ± 0.19
308.15 K, x1 = 0.74	954.2 ± 0.3	1.69 ± 0.2
308.15 K, x1 = 0.8499	977.4 ± 0.3	2.01 ± 0.24
308.15 K, x1 = 0.94	996.4 ± 0.3	2.43 ± 0.29
308.15 K, x1 = 1	1009 ± 0.3	2.75 ± 0.33
313.15 K, x1 = 0.0813	807.5 ± 0.2	1.65 ± 0.2
313.15 K, x1 = 0.16	824.7 ± 0.3	1.52 ± 0.18
313.15 K, x1 = 0.24	842.1 ± 0.3	1.416 ± 0.17
313.15 K, x1 = 0.3502	865.9 ± 0.3	1.33 ± 0.16
313.15 K, x1 = 0.44	885.3 ± 0.3	1.29 ± 0.16
313.15 K, x1 = 0.5601	911.2 ± 0.3	1.3 ± 0.16
313.15 K, x1 = 0.65	930.5 ± 0.3	1.35 ± 0.16
313.15 K, x1 = 0.74	949.6 ± 0.3	1.49 ± 0.18
313.15 K, x1 = 0.8499	973 ± 0.3	1.78 ± 0.21
313.15 K, x1 = 0.94	992 ± 0.3	2.14 ± 0.26
313.15 K, x1 = 1	1004.7 ± 0.3	2.43 ± 0.29
318.15 K, x1 = 0.0813	802.9 ± 0.3	1.42 ± 0.17
318.15 K, x1 = 0.16	820 ± 0.3	1.31 ± 0.16
318.15 K, x1 = 0.24	837.3 ± 0.3	1.21 ± 0.15
318.15 K, x1 = 0.3502	861.1 ± 0.3	1.13 ± 0.14
318.15 K, x1 = 0.44	880.5 ± 0.3	1.11 ± 0.13
318.15 K, x1 = 0.5601	906.4 ± 0.3	1.13 ± 0.14
318.15 K, x1 = 0.65	925.7 ± 0.3	1.19 ± 0.14
318.15 K, x1 = 0.74	945 ± 0.3	1.31 ± 0.16
318.15 K, x1 = 0.8499	968.5 ± 0.3	1.58 ± 0.19
318.15 K, x1 = 0.94	987.6 ± 0.3	1.9 ± 0.23
318.15 K, x1 = 1	1000.4 ± 0.3	2.14 ± 0.26
323.15 K, x1 = 0.0813	798.2 ± 0.3	1.24 ± 0.15
323.15 K, x1 = 0.16	815.2 ± 0.3	1.15 ± 0.14
323.15 K, x1 = 0.24	832.5 ± 0.3	1.07 ± 0.13
323.15 K, x1 = 0.3502	856.2 ± 0.3	1 ± 0.12
323.15 K, x1 = 0.44	875.5 ± 0.3	0.99 ± 0.12
323.15 K, x1 = 0.5601	901.3 ± 0.3	1.014 ± 0.12
323.15 K, x1 = 0.65	920.7 ± 0.3	1.075 ± 0.13
323.15 K, x1 = 0.74	940 ± 0.3	1.189 ± 0.14
323.15 K, x1 = 0.8499	963.5 ± 0.3	1.46 ± 0.18
323.15 K, x1 = 0.94	982.7 ± 0.3	1.75 ± 0.21
323.15 K, x1 = 1	995.5 ± 0.3	1.96 ± 0.24
